From patent US20150025012A1, “METHODS AND COMPOSITIONS FOR IDENTIFICATION, ASSESSMENT AND TREATMENT OF CANCERS ASSOCIATED WITH HEDGEHOG SIGNALING” (Infinity Pharmaceuticals, Inc., priority 2010, published 2015)

Key:
hGli-1 mRNA expression = assay: Gli-1 mRNA expression after SHh stimulation in tumor cell lines (qRT-PCR); assay type: cell-based, human; conditions: SW872 liposarcoma cell lines; 500 nM IPI-926
Description: Several tumor cell lines were tested for Hh pathway responsiveness and for the presence or absence of cilia or vimentin immunofluorescence (IF). Hh pathway responsiveness was evaluated by detecting increases in hGli-1 mRNA expression in response to Sonic Hedgehog stimulation) in a control sample (C), sample treated with Sonic Hedgehog (SHh), and sample treated with SHh and 500 nM of the hedgehog inhibitor IPI-926 (926). Procedures for RNA extraction and RT-PCR detection were performed by standard methods. Briefly, total RNA was extracted from all tumors using a standard RNEASY® Mini Kit (Qiagen). Next, the RNA was converted to cDNA and 50 ng cDNA was used in each reaction/sample for qRT-PCR analysis of the expression of human Gli1. Samples were tested in duplicate. Cilia and Vimentin IF was performed using standard immunofluorescent methods. Cilia were detected on cells using immunofluorescence (IF) with antibodies specific for acetylated-tubulin obtained from Sigma Aldrich. Cells were co-stained with antibodies to the centriole-specific protein pericentrin.
Hh pathway modulation measured after growing cells in low serum and treating with SHh ligand in the presence or absence of IPI-926. Cell lines were cultured under the following conditions. […]

[1] = tested on: patient derived tumor xenograft models; assay: Tumor growth in patient derived tumor xenograft models; assay type: in vivo, Mice
Source text: Mice received daily treatment of IPI-926, M-F, for 6-10 weeks (n=10-15 per group).

Bx-PC3 tumors = assay: Growth of Bx-PC3 tumors in mice; assay type: in vivo; conditions: single agents and combination
Source text: Bevacizumab, a monoclonal antibody, exerts its activity by neutralizing VEGF, a factor important of the proliferation and survival of endothelial cells. […] In the same study, the relative effect of these agents was explored by measuring the mRNA expression of PECAM-1, a marker of endothelial cells and RGS5, a marker of pericytes. […] The role of the vasculature and its supporting pericyte population in the mechanism of action of IPI-926 continues to be explored.
For in vivo studies, tumors were grown in male NCR-nu/nu mice by subcutaneous injection of 5×10^6 cells. Tumor growth was monitored using calipers. When tumors reached an approximate size of 200 mm^3, tumor bearing animals were randomized into treatment arms and administered agents or vehicles as described.

[2] = tested on: Basal Cell Carcinoma (BCC) lesion; assay: BCC lesion in a patient before and after treatment; assay type: in vivo, human; conditions: six months after treatment
Gli1 mRNA = assay: Real-time RT-PCR of Gli1 mRNA in laser capture microdissected BCC tumor samples; assay type: in vivo, human; conditions: post-treatment versus pre-treatment, BCC patients
Description: As a comparison, real-time RT-PCR was performed using RNA extracted from Laser Capture Microdissected tumor samples from BCC patients. The ddCt method was used to calculate the real-time PCR results (Livak K. J. et al. (2001) Methods. 25(4):402-8). FIG. 27 is a bar graph depicting the quantitation of Gli1 mRNA pre- and post treatment with IPI-926. Although a decrease level of Gli1 mRNA is detected post-treatment, the level of reduction is not as pronounced as that detected by evaluating nuclear localization of Gli1.

SHh signaling = SHh signaling in pericytic C3H10T1/2 cell cultures (qRT-PCR); assay type: cell-based, Mouse; conditions: pericytic C3H10T1/2 cells, SHh plus IPI-926
Description: To test this, a model of pericyte cell differentiation, the C3H10T1/2 cells was evaluated. C3H10T1/2 cells were differentiated in vitro into pericytes. C3H10T1/2 cells are believed to be pluripotent mesenchymal cells, which can be induced to differentiate into multiple different cell lineages, including myoblasts, adipocytes, osteoblasts and pericytes (Taylor, et al. (1979) Cell 17(4):771-9). In this case, cells are cultured to confluence and then allowed to differentiate over the course of 5 additional days of culture. At this time, the cells are seen to express high levels of CD13, an established marker of pericytes.
We subsequently explored if SHh signaling was intact in these pericyte cultures. In a typical experiment, confluent C3H10T1/2 cells were allowed to differentiate into pericyte-like cells. After 5 days in culture, SHh with or without IPI-926 were added to the cells in the presence of normal serum. On day 8 of culture, cells were re-fed SHh with or without IPI-926 and shifter to low serum. qRT-PCR analysis was performed on day 9. SHh signaling was detected in these cells as measured by Gli1 mRNA upregulation; the SHh signaling was inhibited by IPI-926 (FIG. 28). Cells were treated on day 8; Gli1 mRNA levels were evaluated in control samples, after SHh addition, after SHh and IPI-926 and cells treated with IPI-926 alone as shown in FIG. 28. […]

tumor stroma = assay: Uptake of imaging marker Gd-DTPA (DCE-MRI) and fluorescent drug and protein in tumors; assay type: in vivo; conditions: IPI-926 treated tumors
[3] = tested on: human cell lines derived from patients with cancer; conditions: pancreatic cancer, medulloblastoma, lung cancer, multiple myeloma, leukemias, lymphomas; cited from earlier work
[4] = tested on: preclinical in vivo tumor models; conditions: medulloblastoma, SCLC, NSCLC, skin, head and neck, ovarian cancer; cited from earlier work
[5] = daily treatment M-F for 6-10 weeks, multiple models

In the case of `CC1=C2C[C@H]3[C@@H](CC[C@@H]4C[C@H](NS(C)(=O)=O)CC[C@@]43C)[C@@H]2CC[C@@]2(C1)O[C@@H]1C[C@H](C)CN[C@H]1[C@H]2C` [IPI-926], the “SHh-upregulated Gli-1 mRNA expression” value (hGli-1 mRNA expression) is reported as “blocked”, the changes in morphology ([1]; FIGS. 22A-22D micrographs) is reported as “loss of tumor cells and calcification of the chondroid matrix” and the “mean tumor growth inhibition” value [1, 5] is reported as 43%. For the same molecule, the “range of tumor growth inhibition” value [1, 5] was 33-52%, the “activity on the growth of Bx-PC3 tumors” value (Bx-PC3 tumors) was “approximately the same single agent activity” and the “size and morphology of BCC lesion” value [2] was “dramatic reduction”. The “level of Gli1 mRNA” value (Gli1 mRNA) was “decrease”, the “SHh-induced Gli1 mRNA upregulation” value (SHh signaling) was “inhibited” and the “SHh-induced downregulation of RGS5 mRNA” value (SHh signaling) was “reversed”. For the same molecule, the “uptake of imaging marker Gd-DTPA and fluorescent drug and protein (doxorubicin, lectin)” value (tumor stroma) was “increased uptake”, the “in vitro growth of human cell lines” value [3] was “inhibit” and the “tumor growth in preclinical in vivo models” value [4] was “tumor growth inhibition”.
